Reference: patent US20260325533A1, “CDK INHIBITOR COMPOUNDS” (ALEKSIA THERAPEUTICS, INC., priority 2023, published 2026)
pIC50: −log10 of the molar value. Read-outs that look alike come from different tables or passages of the source. Each block holds one molecule with its values, some of them ahead of it.

Tests used:
Format in all cases: biochemical
CDK6/CCND1 = CDK6/CCND1 (Homo sapiens, UniProt Q00534); experiment: CDK6 homogeneous time-resolved fluorescence (HTRF) kinase assay; conditions: CDK6/CCND
Outline: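 Enzyme pre-incubated 20 min at 23 °C with compound, then reacted 60 min at 23 °C with 1 mM ATP and 50 nM ULight-4E-BP1 (Thr37/46) peptide; 1 nM enzyme, 1% DMSO. EDTA-stopped, Eu-anti-phospho antibody TR-FRET read (665 nm or 665/615 ratio); 11-point half-log titration from 10 μM gave IC50.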

CDK2/CCNE1 = CDK2/CCNE1 (Homo sapiens, UniProt P24941); experiment: CDK2 homogeneous time-resolved fluorescence (HTRF) kinase assay; conditions: CDK2/CCNE
Outline: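 CDK2/CCNE1 (3 nM) preincubated 20 min at 23 °C with compound, then reacted 60 min at 23 °C with 1 mM ATP and 50 nM ULight-4E-BP1 (Thr37/46) peptide. Stopped with EDTA, phospho-peptide detected by Eu-anti-phospho antibody (665 nm or 665/615 ratio). IC50 from 11-point half-log titrations typically starting at 10 μM.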

CDK4/CCND3 = CDK4/CCND3 (Homo sapiens, UniProt P11802); experiment: CDK4 homogeneous time-resolved fluorescence (HTRF) kinase assay; conditions: CDK4/CCND
Outline: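 CDK4/CCND3 at 1.5 nM was preincubated with compound for 20 min at 23 °C, then reacted for 60 min with 1 mM ATP and 50 nM ULight-4E-BP1 (Thr37/46) peptide. The reaction was stopped with EDTA, and phosphorylation was read by HTRF with a Eu-anti-phospho antibody. IC50 values came from 11-point half-log titrations, typically from 10 μM.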

CDK1/CCNB1 = CDK1/CCNB1 (Homo sapiens, UniProt P06493); experiment: CDK1 homogeneous time-resolved fluorescence (HTRF) kinase assay; conditions: CDK1/CCNB
Outline: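 Compounds, titrated 11 points in half-log steps typically from 10 μM, were incubated with enzyme for 20 min before ATP (1 mM) and ULight-labelled eIF4E-binding protein 1 peptide (50 nM) started a 60-min reaction at 23 °C. Phosphopeptide was detected by europium-antibody TR-FRET and IC50 values were derived.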

[1] = >250 nM, 1 mM ATP, read-out: CDK6/CCND IC50, >250 nM
[2] = <25 nM, read-out: CDK2/CCNE IC50, <25 nM
[3] = >250 nM, read-out: CDK4/CCND IC50, >250 nM
[4] = >250 nM, read-out: CDK1/CCNB IC50 >250 nM
[5] = 25-250 nM, read-out: CDK2/CCNE IC50, 25-250 nM
[6] = x = IC50 >250 nM, read-out: CDK6/CCND IC50 (>250 nM column)
[7] = x = IC50 25-250 nM, read-out: CDK2/CCNE IC50 (25-250 nM)
[8] = x = IC50 >250 nM, read-out: CDK4/CCND IC50 (>250 nM column)
[9] = x = IC50 >250 nM, read-out: CDK1/CCNB IC50 (>250 nM column)
[10] = >250 nM marked x, read-out: CDK6/CCND IC50 >250 nM
[11] = >250 nM marked x, read-out: CDK4/CCND IC50 >250 nM
[12] = >250 nM marked x, read-out: CDK1/CCNB IC50 >250 nM
[13] = <25 nM, read-out: CDK2/CCNE IC50 <25 nM
[14] = 25-250 nM marked x, read-out: CDK4/CCND IC50 25-250 nM
[15] = 25-250 nM marked x, read-out: CDK1/CCNB IC50 25-250 nM
[16] = 25-250 nM, 1 mM ATP, read-out: CDK6/CCND IC50, 25-250 nM
[17] = 25-250 nM, read-out: CDK4/CCND IC50, 25-250 nM

CDK1/CCNB1, sequence (P06493 whole entry): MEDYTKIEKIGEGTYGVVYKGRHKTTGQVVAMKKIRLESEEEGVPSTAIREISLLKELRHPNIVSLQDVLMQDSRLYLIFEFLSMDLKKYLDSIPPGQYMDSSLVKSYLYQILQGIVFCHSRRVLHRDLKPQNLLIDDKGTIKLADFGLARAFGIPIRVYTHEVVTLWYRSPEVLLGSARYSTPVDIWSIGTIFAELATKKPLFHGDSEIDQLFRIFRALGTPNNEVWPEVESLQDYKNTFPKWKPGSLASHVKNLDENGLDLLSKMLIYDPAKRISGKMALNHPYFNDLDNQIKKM
CDK1/CCNB1, sequence (P14635 whole entry partner): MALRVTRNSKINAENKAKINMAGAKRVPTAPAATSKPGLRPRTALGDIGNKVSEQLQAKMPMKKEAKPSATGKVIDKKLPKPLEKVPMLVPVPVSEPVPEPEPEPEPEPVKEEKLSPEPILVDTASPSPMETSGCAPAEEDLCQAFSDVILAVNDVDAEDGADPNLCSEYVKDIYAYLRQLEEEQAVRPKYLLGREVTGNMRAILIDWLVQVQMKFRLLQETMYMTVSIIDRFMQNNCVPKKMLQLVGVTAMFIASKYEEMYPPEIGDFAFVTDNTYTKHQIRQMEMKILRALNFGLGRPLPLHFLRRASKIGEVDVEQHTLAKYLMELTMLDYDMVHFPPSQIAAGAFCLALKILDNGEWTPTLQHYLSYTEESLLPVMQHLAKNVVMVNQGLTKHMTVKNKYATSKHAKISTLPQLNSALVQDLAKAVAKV
CDK6/CCND1, sequence (Q00534 whole entry): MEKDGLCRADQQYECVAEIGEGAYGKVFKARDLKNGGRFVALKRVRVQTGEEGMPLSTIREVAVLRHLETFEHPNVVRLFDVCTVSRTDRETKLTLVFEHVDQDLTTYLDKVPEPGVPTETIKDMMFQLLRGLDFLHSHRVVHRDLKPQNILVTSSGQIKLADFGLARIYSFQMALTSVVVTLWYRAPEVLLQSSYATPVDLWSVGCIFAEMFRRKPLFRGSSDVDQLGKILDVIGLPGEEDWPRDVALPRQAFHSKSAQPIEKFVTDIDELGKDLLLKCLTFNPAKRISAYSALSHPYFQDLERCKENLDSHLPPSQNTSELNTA
CDK6/CCND1, sequence (P24385 whole entry partner): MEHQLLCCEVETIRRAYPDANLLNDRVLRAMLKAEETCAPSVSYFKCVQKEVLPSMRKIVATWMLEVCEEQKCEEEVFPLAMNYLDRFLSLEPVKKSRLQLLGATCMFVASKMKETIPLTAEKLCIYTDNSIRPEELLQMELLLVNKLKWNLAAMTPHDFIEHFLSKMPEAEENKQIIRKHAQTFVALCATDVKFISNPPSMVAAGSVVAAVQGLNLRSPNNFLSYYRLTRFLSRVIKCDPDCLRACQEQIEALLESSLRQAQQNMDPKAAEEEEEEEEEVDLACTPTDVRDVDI
CDK4/CCND3, sequence (P11802 whole entry): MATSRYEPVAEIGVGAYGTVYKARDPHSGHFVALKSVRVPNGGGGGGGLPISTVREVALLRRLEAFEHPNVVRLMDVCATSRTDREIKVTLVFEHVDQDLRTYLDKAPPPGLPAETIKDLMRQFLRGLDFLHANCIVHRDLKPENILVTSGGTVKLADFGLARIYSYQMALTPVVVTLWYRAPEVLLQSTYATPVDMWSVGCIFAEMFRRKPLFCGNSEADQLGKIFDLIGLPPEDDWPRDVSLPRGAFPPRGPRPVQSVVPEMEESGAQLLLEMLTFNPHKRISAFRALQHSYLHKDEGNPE
CDK4/CCND3, sequence (P30281 whole entry partner): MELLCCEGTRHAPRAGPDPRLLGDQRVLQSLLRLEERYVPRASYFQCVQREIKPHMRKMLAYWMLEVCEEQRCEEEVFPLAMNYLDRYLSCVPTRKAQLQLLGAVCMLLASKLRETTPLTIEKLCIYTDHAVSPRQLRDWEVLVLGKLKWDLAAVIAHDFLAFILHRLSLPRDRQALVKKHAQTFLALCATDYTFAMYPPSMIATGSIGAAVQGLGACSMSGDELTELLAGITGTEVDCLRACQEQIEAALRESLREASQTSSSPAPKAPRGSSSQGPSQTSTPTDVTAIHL

pIC50 (CDK6/CCND1; [1]): < 6.60 | pIC50 (CDK2/CCNE1; [2]): > 7.60 | pIC50 (CDK4/CCND3; [3]): < 6.60 | pIC50 (CDK1/CCNB1; [4]): < 6.60
Structure (SMILES): Cc1nn(C)c(C)c1S(=O)(=O)Nc1ccc(Nc2cc3c(-c4ccc5c(cnn5CC(C)(C)O)c4C)nccc3cn2)cc1 [Ex 830, N-(4-((5-(1-(2-hydroxy-2-methylpropyl)-4-methyl-1H-indazol-5-yl)-2,6-naphthyridin-3-yl)amino)phenyl)-1,3,5-trimethyl-1H-pyrazole-4-sulfonamide]

pIC50 (CDK6/CCND1; [1]): < 6.60 | pIC50 (CDK2/CCNE1; [5]): 6.60 to 7.60 | pIC50 (CDK4/CCND3; [3]): < 6.60 | pIC50 (CDK1/CCNB1; [4]): < 6.60
Structure (SMILES): CSc1ccc(C#Cc2nccc3cnc(Nc4ccc(S(C)(=O)=O)cc4)cc23)cc1 [Ex 858, N-(4-(methylsulfonyl)phenyl)-5-((4-(methylthio)phenyl)ethynyl)-2,6-naphthyridin-3-amine]

pIC50 (CDK6/CCND1; [6]): < 6.60 | pIC50 (CDK2/CCNE1; [7]): 6.60 to 7.60 | pIC50 (CDK4/CCND3; [8]): < 6.60 | pIC50 (CDK1/CCNB1; [9]): < 6.60
Structure (SMILES): CS(=O)(=O)c1ccc(Nc2cc3c(C#Cc4cnc5[nH]c(=O)oc5c4)nccc3cn2)cc1 [Ex 501, 6-((7-((4-(methylsulfonyl)phenyl)amino)-2,6-naphthyridin-1-yl)ethynyl)oxazolo[4,5-b]pyridin-2(3H)-one]

pIC50 (CDK6/CCND1; [6]): < 6.60 | pIC50 (CDK2/CCNE1; [7]): 6.60 to 7.60 | pIC50 (CDK4/CCND3; [8]): < 6.60 | pIC50 (CDK1/CCNB1; [9]): < 6.60
Structure (SMILES): CS(=O)(=O)c1ccc(Nc2cc3c(C#Cc4ccc(F)c(O)c4)nccc3cn2)cc1 [Ex 560, 2-fluoro-5-((7-((4-(methylsulfonyl)phenyl)amino)-2,6-naphthyridin-1-yl)ethynyl)phenol]

pIC50 (CDK6/CCND1; [6]): < 6.60 | pIC50 (CDK2/CCNE1; [7]): 6.60 to 7.60 | pIC50 (CDK4/CCND3; [8]): < 6.60 | pIC50 (CDK1/CCNB1; [9]): < 6.60
Structure (SMILES): CS(=O)(=O)c1ccc(Nc2cc3c(C#Cc4ccc(OC(F)F)cc4)nccc3cn2)cc1 [Ex 636, 5-((4-(difluoromethoxy)phenyl)ethynyl)-N-(4-(methylsulfonyl)phenyl)-2,6-naphthyridin-3-amine]

pIC50 (CDK6/CCND1; [10]): < 6.60 | pIC50 (CDK2/CCNE1; 25-250 nM marked x, read-out: CDK2/CCNE IC50 25-250 nM): 6.60 to 7.60 | pIC50 (CDK4/CCND3; [11]): < 6.60 | pIC50 (CDK1/CCNB1; [12]): < 6.60
Structure (SMILES): Cc1c(-c2nccc3cnc(Nc4ccc(S(C)(=O)=O)cc4)cc23)ccc2c1cnn2CCC1CNC1 [Ex 216, 5-(1-(2-(azetidin-3-yl)ethyl)-4-methyl-1H-indazol-5-yl)-N-(4-(methylsulfonyl)phenyl)-2,6-naphthyridin-3-amine]

pIC50 (CDK6/CCND1; [1]): < 6.60 | pIC50 (CDK2/CCNE1; [2]): > 7.60 | pIC50 (CDK4/CCND3; [3]): < 6.60 | pIC50 (CDK1/CCNB1; [4]): < 6.60
Structure (SMILES): COc1cc(OC)nc(NS(=O)(=O)c2ccc(Nc3cc4c(-c5ccc6c(cnn6CC(C)(C)O)c5C)nccc4cn3)cc2)n1 [Ex 898, N-(4,6-dimethoxypyrimidin-2-yl)-4-((5-(1-(2-hydroxy-2-methylpropyl)-4-methyl-1H-indazol-5-yl)-2,6-naphthyridin-3-yl)amino)benzenesulfonamide]

pIC50 (CDK6/CCND1; [10]): < 6.60 | pIC50 (CDK2/CCNE1; [13]): > 7.60 | pIC50 (CDK4/CCND3; [11]): < 6.60 | pIC50 (CDK1/CCNB1; [12]): < 6.60
Structure (SMILES): CCC1(CC)C(=O)Nc2cc(C#Cc3nccc4cnc(Nc5ccc(S(=N)(=O)C6COC6)cc5F)cc34)ccc21 (single isomer, unassigned) [Ex 273, 3,3-diethyl-6-((7-((2-fluoro-4-(oxetane-3-sulfonimidoyl)phenyl)amino)-2,6-naphthyridin-1-yl)ethynyl)indolin-2-one]

pIC50 (CDK6/CCND1; 25-250 nM marked x, read-out: CDK6/CCND IC50 25-250 nM): 6.60 to 7.60 | pIC50 (CDK2/CCNE1; [13]): > 7.60 | pIC50 (CDK4/CCND3; [14]): 6.60 to 7.60 | pIC50 (CDK1/CCNB1; [15]): 6.60 to 7.60
Structure (SMILES): CS(=O)(=O)N1CCC(Nc2cc3c(N4CCCC(O)C4)nccc3cn2)CC1 (racemic) [Ex 42, 1-(7-((1-(methylsulfonyl)piperidin-4-yl)amino)-2,6-naphthyridin-1-yl)piperidin-3-ol]

pIC50 (CDK6/CCND1; [6]): < 6.60 | pIC50 (CDK2/CCNE1; x = IC50 <25 nM, read-out: CDK2/CCNE IC50 (<25 nM)): > 7.60 | pIC50 (CDK4/CCND3; x = IC50 25-250 nM, read-out: CDK4/CCND IC50 (25-250 nM)): 6.60 to 7.60 | pIC50 (CDK1/CCNB1; x = IC50 25-250 nM, read-out: CDK1/CCNB IC50 (25-250 nM)): 6.60 to 7.60
Structure (SMILES): CS(=N)(=O)c1ccc(Nc2cc3c(C#Cc4ccc5c(c4)NC(=O)C54CC4)nccc3cn2)cc1 (single isomer, unassigned) [Ex 358, 6'-((7-((4-(S-methylsulfonimidoyl)phenyl)amino)-2,6-naphthyridin-1-yl)ethynyl)spiro[cyclopropane-1,3'-indolin]-2'-one]

pIC50 (CDK6/CCND1; [1]): < 6.60 | pIC50 (CDK2/CCNE1; [2]): > 7.60 | pIC50 (CDK4/CCND3; [3]): < 6.60 | pIC50 (CDK1/CCNB1; [4]): < 6.60
Structure (SMILES): Cc1c(-c2nccc3cnc(Nc4ccc(S(C)(=O)=O)cc4F)cc23)ccc2c1cnn2CC(C)(C)O [Ex 846, 1-(5-(7-((2-fluoro-4-(methylsulfonyl)phenyl)amino)-2,6-naphthyridin-1-yl)-4-methyl-1H-indazol-1-yl)-2-methylpropan-2-ol]

pIC50 (CDK6/CCND1; [1]): < 6.60 | pIC50 (CDK2/CCNE1; [5]): 6.60 to 7.60 | pIC50 (CDK4/CCND3; [3]): < 6.60 | pIC50 (CDK1/CCNB1; [4]): < 6.60
Structure (SMILES): CCOc1ccc(C#Cc2nccc3cnc(Nc4ccc(S(C)(=O)=O)cc4)cc23)cn1 [Ex 869, 5-((6-ethoxypyridin-3-yl)ethynyl)-N-(4-(methylsulfonyl)phenyl)-2,6-naphthyridin-3-amine]

pIC50 (CDK6/CCND1; [1]): < 6.60 | pIC50 (CDK2/CCNE1; [2]): > 7.60 | pIC50 (CDK4/CCND3; [3]): < 6.60 | pIC50 (CDK1/CCNB1; [4]): < 6.60
Structure (SMILES): Cc1c(-c2nccc3cnc(Nc4ccc(S(=O)(=O)Nc5cccc(C(C)(C)O)n5)cc4)cc23)ccc2c1cnn2CC(O)(C(F)(F)F)C(F)(F)F [Ex 711, N-(6-(2-hydroxypropan-2-yl)pyridin-2-yl)-4-((5-(4-methyl-1-(3,3,3-trifluoro-2-hydroxy-2-(trifluoromethyl)propyl)-1H-indazol-5-yl)-2,6-naphthyridin-3-yl)amino)benzenesulfonamide]

pIC50 (CDK6/CCND1; [16]): 6.60 to 7.60 | pIC50 (CDK2/CCNE1; [2]): > 7.60 | pIC50 (CDK4/CCND3; [17]): 6.60 to 7.60 | pIC50 (CDK1/CCNB1; [4]): < 6.60
Structure (SMILES): Cc1c(-c2nccc3cnc(Nc4ccc(S(=O)(=O)Nc5cc(C(C)(C)O)ccn5)cc4)cc23)ccc2c1cnn2CC(C)(C)O [Ex 774, 4-((5-(1-(2-hydroxy-2-methylpropyl)-4-methyl-1H-indazol-5-yl)-2,6-naphthyridin-3-yl)amino)-N-(4-(2-hydroxypropan-2-yl)pyridin-2-yl)benzenesulfonamide]

pIC50 (CDK6/CCND1; [1]): < 6.60 | pIC50 (CDK2/CCNE1; [2]): > 7.60 | pIC50 (CDK4/CCND3; [3]): < 6.60 | pIC50 (CDK1/CCNB1; [4]): < 6.60
Structure (SMILES): Cc1cc(Nc2cc3c(-c4ccc5c(cnn5CC(C)(C)O)c4C)nccc3cn2)ccc1S(C)(=O)=O [Ex 836, 2-methyl-1-(4-methyl-5-(7-((3-methyl-4-(methylsulfonyl)phenyl)amino)-2,6-naphthyridin-1-yl)-1H-indazol-1-yl)propan-2-ol]

pIC50 (CDK6/CCND1; [16]): 6.60 to 7.60 | pIC50 (CDK2/CCNE1; [2]): > 7.60 | pIC50 (CDK4/CCND3; [17]): 6.60 to 7.60 | pIC50 (CDK1/CCNB1; [4]): < 6.60
Structure (SMILES): Cc1c(-c2nccc3cnc(Nc4ccc(S(=O)(=O)NC5CCOC5)cc4)cc23)ccc2c1cnn2CC(C)(C)O (racemic) [Ex 770, 4-((5-(1-(2-hydroxy-2-methylpropyl)-4-methyl-1H-indazol-5-yl)-2,6-naphthyridin-3-yl)amino)-N-(tetrahydrofuran-3-yl)benzenesulfonamide]

pIC50 (CDK6/CCND1; [10]): < 6.60 | pIC50 (CDK2/CCNE1; [13]): > 7.60 | pIC50 (CDK4/CCND3; [14]): 6.60 to 7.60 | pIC50 (CDK1/CCNB1; [15]): 6.60 to 7.60
Structure (SMILES): COCC1(COC)C(=O)Nc2cc(C#Cc3nccc4cnc(Nc5ccc(S(=N)(=O)C(C)C)cc5)cc34)ccc21 (single isomer, unassigned) [Example 321, 3,3-bis(methoxymethyl)-6-((7-((4-(propan-2-ylsulfonimidoyl)phenyl)amino)-2,6-naphthyridin-1-yl)ethynyl)indolin-2-one]
